In patent US20250092039A1, “GLUTARIMIDE-CONTAINING PAN-KRAS-MUTANT DEGRADER COMPOUNDS AND USES THEREOF” (Tiger Biotherapeutics Inc., priority 2022, published 2025) one finds IC50, DC50 and GI50 data, which are given here for 12 molecules.

Like-named read-outs stand apart in the source and are kept apart here.

One experiment deals with KRAS-G12V/RAF1 (Homo sapiens (Human), UniProt P01116, G12V). Nature of the experiment: KRAS/RAF1 binding inhibition assay (AlphaScreen). The procedure, abridged: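 IC50 comes from variable-slope nonlinear fits of % inhibition (relative to DMSO) against inhibitor concentration. The AlphaScreen signal tracks the interaction of GppNHp-bound KRAS G12V with the RAF1 RBD after 60 min at 4° C with compound in 2% DMSO final.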
(In general: Bead proximity is the source of the signal in Alpha formats.)

Another experiment concerns the target KRAS G12V (Homo sapiens (Human), UniProt P01116, G12V). Nature of the experiment: KRAS G12V degradation in SW620 cells (Western blot, DC50). To be noted: 24 hours. It is filed as cell-based. The essentials:
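KRAS levels were quantified by fluorescent Western blot as percent of the DMSO control after 24 h of compound exposure at 37° C in homozygous KRAS G12V SW620 cells. A four-parameter variable-slope fit of the dose-response gave the half-maximal degradation concentration.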

The subject of a further experiment is SW620 cells. Nature of the experiment: 3D cell growth inhibition of SW620 cells carrying endogenous KRAS G12V mutation (CellTiter-Glo 3D, GI50). It is filed as cell-based. The note with it: Homo sapiens, SW-620, 144 h, read-out: SW620 3D cell growth GI50. The procedure, abridged: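 […], compound exposure lasted 6 days at 37° C, added the day after plating from DMSO stocks over a concentration range. Cells: SW620, KRAS G12V, 3D culture.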

Sequence of KRAS-G12V/RAF1 (P01116-2 other isoform, or with tags, fused parts or gaps G12V): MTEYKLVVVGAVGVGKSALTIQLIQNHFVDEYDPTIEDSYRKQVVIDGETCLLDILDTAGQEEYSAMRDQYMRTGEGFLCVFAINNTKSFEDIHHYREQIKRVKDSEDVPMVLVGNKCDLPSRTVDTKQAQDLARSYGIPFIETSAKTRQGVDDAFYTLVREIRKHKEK
Sequence of KRAS G12V (P01116-2 other isoform, or with tags, fused parts or gaps G12V): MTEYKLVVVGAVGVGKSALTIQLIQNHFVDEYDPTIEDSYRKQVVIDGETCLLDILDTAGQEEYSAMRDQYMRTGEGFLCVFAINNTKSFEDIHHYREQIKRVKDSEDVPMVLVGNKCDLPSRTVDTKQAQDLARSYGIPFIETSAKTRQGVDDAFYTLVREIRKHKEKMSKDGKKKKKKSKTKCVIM

By IC50 is commonly meant the concentration that inhibits the measured activity by half. Low readings indicate inhibition by little substance, high ones a need for much substance. By DC50 is commonly meant the midpoint of the concentration-degradation curve. A higher DC50 goes with a less potent degrader. As usually defined, the GI50 is the concentration at which growth is held to half of that of the control. As to `CCc1c(F)ccc2cc(O)cc(-c3ncc4c(N5CCC[C@@](C)(O)C5)nc(OCC5(CN6CC7(CC(CN8CCN(c9ccc%10c(c9)CN([C@@H]9CCC(=O)NC9=O)C%10=O)CC8)C7)C6)CC5)nc4c3F)c12` [Compound 11, (R)-3-(5-(4-((2-((1-(((7-(8-ethyl-7-fluoro-3-hydroxynaphthalen-1-yl)-8-fluoro-4-((R)-3-hydroxy-3-methylpiperidin-1-yl)pyrido[4,3-d]pyrimidin-2-yl)oxy)methyl)cyclopropyl)methyl)-2-azaspiro[3.3]heptan-6-yl)methyl)piperazin-1-yl)-1-oxoisoindolin-2-yl)piperidine-2,6-dione], the IC50 at KRAS-G12V/RAF1 is below 20 nM. Moreover, the DC50 on KRAS G12V was in the range of 1 to 10 nM. The GI50 with SW620 cells (SW620 cells, 6 days) was in the range of 10 to 100 nM.

`CCc1c(F)ccc2cc(O)cc(-c3ncc4c(N5CCOCC(C)(O)C5)nc(OCC5(CN6CCC(CN7CCN(c8ccc9c(c8)CN([C@H]8CCC(=O)NC8=O)C9=O)CC7)CC6)CC5)nc4c3F)c12` (stereo partly drawn) [Compound 92, (3S)-3-(5-(4-((1-((1-(((7-(8-ethyl-7-fluoro-3-hydroxynaphthalen-1-yl)-8-fluoro-4-(6-hydroxy-6-methyl-1,4-oxazepan-4-yl)pyrido[4,3-d]pyrimidin-2-yl)oxy)methyl)cyclopropyl)methyl)piperidin-4-yl)methyl)piperazin-1-yl)-1-oxoisoindolin-2-yl)piperidine-2,6-dione] showed an IC50 on KRAS-G12V/RAF1 of 20 to 200 nM. The molecule further returned a DC50 on KRAS G12V of 1 to 10 nM. The GI50 in the experiment on SW620 cells (SW620 cells, 6 days) is below 10 nM.

`CCc1c(F)ccc2cc(N)cc(-c3ncc4c(N5CCC[C@@](C)(O)C5)nc(OCC5(CN6CCC7(CC6)CC(CN6CCN(c8ccc9c(c8)CN([C@H]8CCC(=O)NC8=O)C9=O)CC6)C7)CC5)nc4c3F)c12` [Compound 88, (S)-3-(5-(4-((7-((1-(((7-(3-amino-8-ethyl-7-fluoronaphthalen-1-yl)-8-fluoro-4-((R)-3-hydroxy-3-methylpiperidin-1-yl)pyrido[4,3-d]pyrimidin-2-yl)oxy)methyl)cyclopropyl)methyl)-7-azaspiro[3.5]nonan-2-yl)methyl)piperazin-1-yl)-1-oxoisoindolin-2-yl)piperidine-2,6-dione] had an IC50 on KRAS-G12V/RAF1 above 200 nM. The DC50 on KRAS G12V was above 100 nM. Also, the GI50 with SW620 cells (SW620 cells, 6 days) was 10 to 100 nM.

`C[C@@]1(O)CCCN(c2nc(OCC3(CN4CCC5(CC4)CC(CN4CCN(c6ccc7c(c6)CN([C@H]6CCC(=O)NC6=O)C7=O)CC4)C5)CC3)nc3c(F)c(-c4cc(O)cc5cccc(Cl)c45)ncc23)C1` [Compound 129, (S)-3-(5-(4-((7-((1-(((7-(8-chloro-3-hydroxynaphthalen-1-yl)-8-fluoro-4-((R)-3-hydroxy-3-methylpiperidin-1-yl)pyrido[4,3-d]pyrimidin-2-yl)oxy)methyl)cyclopropyl)methyl)-7-azaspiro[3.5]nonan-2-yl)methyl)piperazin-1-yl)-1-oxoisoindolin-2-yl)piperidine-2,6-dione] yielded an IC50 on KRAS-G12V/RAF1 of 20 to 200 nM. The same molecule gave a DC50 on KRAS G12V below 1 nM. Besides, in the experiment on SW620 cells (SW620 cells, 6 days), the GI50 is 10 to 100 nM.

Regarding `CCc1c(F)ccc2cc(N)cc(-c3ncc4c(N5CCC[C@@](C)(O)C5)nc(OCC5(CN6CCC(CN7CCN(c8ccc9c(c8)CN([C@H]8CCC(=O)NC8=O)C9=O)CC7)CC6)CC5)nc4c3F)c12` [Compound 89, (S)-3-(5-(4-((1-((1-(((7-(3-amino-8-ethyl-7-fluoronaphthalen-1-yl)-8-fluoro-4-((R)-3-hydroxy-3-methylpiperidin-1-yl)pyrido[4,3-d]pyrimidin-2-yl)oxy)methyl)cyclopropyl)methyl)piperidin-4-yl)methyl)piperazin-1-yl)-1-oxoisoindolin-2-yl)piperidine-2,6-dione], at KRAS-G12V/RAF1, the IC50 was above 200 nM. For the same molecule, on KRAS G12V, the DC50 was above 100 nM. The GI50 in the experiment on SW620 cells (SW620 cells, 6 days) was above 100 nM.

`C[C@@]1(O)CCCN(c2nc(OCC3(CN4CCC(CN5CCN(c6ccc7c(c6)CN([C@H]6CCC(=O)NC6=O)C7=O)CC5)CC4)CC3)nc3c(F)c(-c4cc(O)cc5cccc(Cl)c45)ncc23)C1` [Compound 123, (S)-3-(5-(4-((1-((1-(((7-(8-chloro-3-hydroxynaphthalen-1-yl)-8-fluoro-4-((R)-3-hydroxy-3-methylpiperidin-1-yl)pyrido[4,3-d]pyrimidin-2-yl)oxy)methyl)cyclopropyl)methyl)piperidin-4-yl)methyl)piperazin-1-yl)-1-oxoisoindolin-2-yl)piperidine-2,6-dione] gave an IC50 on KRAS-G12V/RAF1 of 20 to 200 nM. In addition, at KRAS G12V, the DC50 was 1 to 10 nM. The GI50 with SW620 cells (SW620 cells, 6 days) fell in the range of 10 to 100 nM.

At KRAS-G12V/RAF1, `CCc1c(F)ccc2cc(O)cc(-c3ncc4c(N5CCC[C@@](C)(O)C5)nc(OCC5(CN6CCC7(CC6)CC(F)(CN6CCN(c8ccc(C(=O)N[C@H]9CCC(=O)NC9=O)c(F)c8)CC6)C7)CC5)nc4c3F)c12` [Compound 180, N-((S)-2,6-dioxopiperidin-3-yl)-4-(4-((7-((1-(((7-(8-ethyl-7-fluoro-3-hydroxynaphthalen-1-yl)-8-fluoro-4-((R)-3-hydroxy-3-methylpiperidin-1-yl)pyrido[4,3-d]pyrimidin-2-yl)oxy)methyl)cyclopropyl)methyl)-2-fluoro-7-azaspiro[3.5]nonan-2-yl)methyl)piperazin-1-yl)-2-fluorobenzamide] had an IC50 of 20 to 200 nM. The same molecule came in with a DC50 on KRAS G12V above 100 nM. Moreover, the GI50 in the experiment on SW620 cells (SW620 cells, 6 days) was in the range of 10 to 100 nM.

Molecule `CCc1c(F)ccc2cc(O)cc(-c3ncc4c(N5CCC[C@@](C)(O)C5)nc(OCC5(CN6CCC7(CC6)CN(CC6CCN(c8ccc9c(c8)CN(C8CCC(=O)NC8=O)C9=O)CC6)C7)CC5)nc4c3F)c12` (stereo partly drawn) [Compound 131, 3-(5-(4-((7-((1-(((7-(8-ethyl-7-fluoro-3-hydroxynaphthalen-1-yl)-8-fluoro-4-((R)-3-hydroxy-3-methylpiperidin-1-yl)pyrido[4,3-d]pyrimidin-2-yl)oxy)methyl)cyclopropyl)methyl)-2,7-diazaspiro[3.5]nonan-2-yl)methyl)piperidin-1-yl)-1-oxoisoindolin-2-yl)piperidine-2,6-dione] had an IC50 at KRAS-G12V/RAF1 below 20 nM. At KRAS G12V, this molecule gave a DC50 below 1 nM. The GI50 with SW620 cells was below 10 nM.

In turn, `CCc1c(F)ccc2cc(O)cc(-c3ncc4c(N5CCC[C@@H](O)CC5)nc(OCC5(CN6CCC7(CC6)CC(CN6CCN(c8ccc9c(c8)CN([C@H]8CCC(=O)NC8=O)C9=O)CC6)C7)CC5)nc4c3F)c12` [Compound 116, (S)-3-(5-(4-((7-((1-(((7-(8-ethyl-7-fluoro-3-hydroxynaphthalen-1-yl)-8-fluoro-4-((R)-4-hydroxyazepan-1-yl)pyrido[4,3-d]pyrimidin-2-yl)oxy)methyl)cyclopropyl)methyl)-7-azaspiro[3.5]nonan-2-yl)methyl)piperazin-1-yl)-1-oxoisoindolin-2-yl)piperidine-2,6-dione] returned an IC50 at KRAS-G12V/RAF1 above 200 nM. For the same molecule, the DC50 at KRAS G12V lay in the range of 1 to 10 nM. In addition, the GI50 in the experiment with SW620 cells (SW620 cells, 6 days) is above 100 nM.

On to `CCc1c(F)ccc2cc(O)cc(-c3ncc4c(N5CCC[C@@](C)(O)C5)nc(OCC5(CN6CCC(O)(CN7CCN(c8ccc9c(c8)CN([C@H]8CCC(=O)NC8=O)C9=O)CC7)CC6)CC5)nc4c3F)c12` [Compound 13, (S)-3-(5-(4-((1-((1-(((7-(8-ethyl-7-fluoro-3-hydroxynaphthalen-1-yl)-8-fluoro-4-((R)-3-hydroxy-3-methylpiperidin-1-yl)pyrido[4,3-d]pyrimidin-2-yl)oxy)methyl)cyclopropyl)methyl)-4-hydroxypiperidin-4-yl)methyl)piperazin-1-yl)-1-oxoisoindolin-2-yl)piperidine-2,6-dione], for which the IC50 on KRAS-G12V/RAF1 is below 20 nM. The DC50 at KRAS G12V is 1 to 10 nM. In addition, in the experiment with SW620 cells (SW620 cells, 6 days), the GI50 was in the range of 10 to 100 nM.

For `CCc1c(F)ccc2cc(O)cc(-c3ncc4c(N5CCC[C@@](C)(O)C5)nc(OCC5(CN6CC7(CCC(N8CCN(c9ccc%10c(c9)CN([C@H]9CCC(=O)NC9=O)C%10=O)CC8)CC7)C6)CC5)nc4c3F)c12` [Compound 136, (S)-3-(5-(4-(2-((1-(((7-(8-ethyl-7-fluoro-3-hydroxynaphthalen-1-yl)-8-fluoro-4-((R)-3-hydroxy-3-methylpiperidin-1-yl)pyrido[4,3-d]pyrimidin-2-yl)oxy)methyl)cyclopropyl)methyl)-2-azaspiro[3.5]nonan-7-yl)piperazin-1-yl)-1-oxoisoindolin-2-yl)piperidine-2,6-dione], the half-maximal inhibitory concentration (IC50) at KRAS-G12V/RAF1 is below 20 nM. The DC50 on KRAS G12V is below 1 nM. Besides, in the experiment on SW620 cells (SW620 cells, 6 days), the GI50 was 10 to 100 nM.

`CCc1c(F)ccc2cc(O)cc(-c3ncc4c(N5CCOCC(C)(O)C5)nc(OCC5(CN6CCC7(CC6)CC(CN6CCN(c8ccc9c(c8)CN([C@H]8CCC(=O)NC8=O)C9=O)CC6)C7)CC5)nc4c3F)c12` (mixture of isomers) [Compound 91, (3S)-3-(5-(4-((7-((1-(((7-(8-ethyl-7-fluoro-3-hydroxynaphthalen-1-yl)-8-fluoro-4-(6-hydroxy-6-methyl-1,4-oxazepan-4-yl)pyrido[4,3-d]pyrimidin-2-yl)oxy)methyl)cyclopropyl)methyl)-7-azaspiro[3.5]nonan-2-yl)methyl)piperazin-1-yl)-1-oxoisoindolin-2-yl)piperidine-2,6-dione] returned an IC50 on KRAS-G12V/RAF1 of 20 to 200 nM. At KRAS G12V, the DC50 lay within 1 to 10 nM. In addition, the GI50 with SW620 cells was below 10 nM.
